Tested on: spontaneously hypertensive rats (SHR)
Experiment: Blood pressure in spontaneously hypertensive rats
Format: in vivo, rat
Experimental: As the 11-nonyloxy-undec-8(Z)-enoic acid derivatives lowered blood pressure in angiontensin hypertension, additional experiments were performed to determine if one of the derivatives could lower blood pressure in another hypertension model system. Male spontaneously hypertensive rats (SHRs) were maintained on a 12-hour light-dark cycle and allowed access to food and water ad libitum. These studies complied with the protocols for animal use outlined by the American Physiological Society and were approved by the institutional animal care and use committee.
Rats from 6 to 12 weeks of age were treated with 11-nonyloxy-undec-8(Z)-enoic acid derivative (TVR-I-276-21)( 2 mg/d i.p.) or vehicle for 8 days. Blood pressure was measured at Day 0, Day 4, and Day 8.
The blood pressure lowering effects of these analogs were analyzed in an established model of hepertension, the spontaneously hypertensive rats (SHR) using telemetry. […] As discussed in the previous example, additional derivatives with improved solubility and resistance to auto-oxidation and metabolism by sEH were designed using the pharmacophoric moiety of EET.
Amidation of the carboxylic group with aspartic acid produced another EET analog 32 (SA-III-161-32). […] Amidation of the carboxylic group with lysine amino acid produced another EET analog 34 (SA-III-172-26).

`CCCCCCCCCOCC/C=C\CCCCCCC(=O)NC(CCCCN)C(=O)O` (centres unmarked) [SA-III-172-26, (Z)-6-amino-2-(11-(nonyloxy)undec-8-enamido)hexanoic acid] was tested. Which “blood pressure lowering effect” value (injected at 2 mg/day) did it give?
The value was “minimal blood pressure lowering effect”.

How did the blood pressure (2 mg/d i.p. for 8 days, measured Day 0, 4, 8, versus vehicle) turn out when `CCCCCCCCCOCC/C=C\CCCCCCC(=O)OCCOCCOCCO` [TVR-I-276-21, (Z)-2-(2-(2-hydroxyethoxy)ethoxy)ethyl 11-(nonyloxy)undec-8-enoate] was run?
The blood pressure was “did not increase to the same extent as those that received the vehicle treatment”.

What does the source list for `CCCCCCCCCOCC/C=C\CCCCCCC(=O)NC(CC(=O)O)C(=O)O` (centres unmarked) [SA-III-161-32, (Z)-2-(11-(nonyloxy)undec-8-enamido) succinic acid]?
blood pressure lowering effect (injected at 3 mg/day for 5 days): demonstrated a blood pressure lowering effect; MAP Δ change at day 2 of injection (injected at 3 mg/day for 5 days, telemetry): −8±1.3 mmHg

Which blood pressure lowering does the source give for `CCCCCCCCCOCC/C=C\CCCCCCC(=O)O` [11,12-ether EET-8-ZE, 11-nonyloxy-undec-8(Z)-enoic acid, reference compound] here?
The blood pressure lowering was “failed to lower blood pressure”.

— patent publication US7732470B2, “Compositions and methods for the treatment of renal and cardiovascular disease” (Medical College of Georgia Research Institute, priority 2006, dated 2010)
